Measured values: ChEMBL document CHEMBL4257522, “Synthesis and preliminary anti-inflammatory and anti-bacterial evaluation of some diflunisal aza-analogs” (Medchemcomm, 2018)
Activity calls are given as the source filed them. The rule behind the calls is not given here.

Assays:
[1] = test system: Streptococcus pyogenes; assay: Potentiation of tetracycline-induced antibacterial activity against Streptococcus pyogenes ATCC 14289 assessed as minimum modulatory concentration up to 32 uM measured after 16 hrs in presence of MIC/4 tetracycline; assay type: functional; conditions: ATCC 14289, 16 h, read-out: MEC
[2] = test system: Streptococcus pyogenes; assay: Potentiation of geneticin-induced antibacterial activity against Streptococcus pyogenes ATCC 14289 assessed as minimum modulatory concentration up to 32 uM measured after 16 hrs in presence of MIC/4 geneticin; assay type: functional; conditions: ATCC 14289, 16 h, read-out: MEC
[3] = test system: Escherichia coli; assay: Potentiation of ciprofloxacin-induced antibacterial activity against Escherichia coli ATCC 43894 assessed as minimum modulatory concentration up to 32 uM measured after 16 hrs in presence of MIC/4 ciprofloxacin; assay type: functional; conditions: ATCC 43894, 16 h, read-out: MEC
[4] = test system: Staphylococcus aureus; assay: Potentiation of methicillin-induced antibacterial activity against Staphylococcus aureus ATCC 33592 assessed as minimum modulatory concentration up to 32 uM measured after 16 hrs in presence of MIC/4 methicillin; assay type: functional; conditions: ATCC 33592, 16 h, read-out: MEC
[5] = test system: Macrophage cell line; assay: Cytotoxicity against human PBMC-differentiated macrophages treated for 24 hrs followed by compound washout and measured after 48 hrs by MTT assay; assay type: cell-based
[6] = test system: Klebsiella pneumoniae; assay: Potentiation of tetracycline-induced antibacterial activity against Klebsiella pneumoniae ATCC 13883 assessed as minimum modulatory concentration up to 32 uM measured after 16 hrs in presence of MIC/4 tetracycline; assay type: functional; conditions: ATCC 13883, 16 h, read-out: MEC
[7] = test system: Klebsiella pneumoniae; assay: Potentiation of ciprofloxacin-induced antibacterial activity against Klebsiella pneumoniae ATCC 13883 assessed as minimum modulatory concentration up to 32 uM measured after 16 hrs in presence of MIC/4 ciprofloxacin; assay type: functional; conditions: ATCC 13883, 16 h, read-out: MEC
[8] = test system: Macrophage cell line; assay: Induction of prostaglandin production in human PBMC-differentiated macrophages after 24 hrs by ELISA; assay type: cell-based
[9] = test system: Macrophage cell line; assay: Antiinflammatory activity in human PBMC-differentiated macrophages assessed as inhibition of LPS-induced prostaglandin production at 0.01 to 10 uM measured after 24 hrs by ELISA; assay type: functional, cell-based
[10] = test system: Enterococcus faecium; assay: Potentiation of erythromycin-induced antibacterial activity against Enterococcus faecium ATCC 700221 assessed as minimum modulatory concentration up to 32 uM measured after 16 hrs in presence of MIC/4 erythromycin; assay type: functional; conditions: ATCC 700221, 16 h, read-out: MEC
[11] = test system: Klebsiella pneumoniae; assay: Potentiation of erythromycin-induced antibacterial activity against Klebsiella pneumoniae ATCC 13883 assessed as minimum modulatory concentration up to 32 uM measured after 16 hrs in presence of MIC/4 erythromycin; assay type: functional; conditions: ATCC 13883, 16 h, read-out: MEC
[12] = test system: Enterococcus faecium; assay: Potentiation of ciprofloxacin-induced antibacterial activity against Enterococcus faecium ATCC 700221 assessed as minimum modulatory concentration up to 32 uM measured after 16 hrs in presence of MIC/4 ciprofloxacin; assay type: functional; conditions: ATCC 700221, 16 h, read-out: MEC
[13] = test system: Streptococcus pyogenes; assay: Potentiation of methicillin-induced antibacterial activity against Streptococcus pyogenes ATCC 14289 assessed as minimum modulatory concentration up to 32 uM measured after 16 hrs in presence of MIC/4 methicillin; assay type: functional; conditions: ATCC 14289, 16 h, read-out: MEC
[14] = test system: Pseudomonas aeruginosa; assay: Potentiation of erythromycin-induced antibacterial activity against Pseudomonas aeruginosa ATCC BAA-2108 assessed as minimum modulatory concentration up to 32 uM measured after 16 hrs in presence of MIC/4 erythromycin; assay type: functional; conditions: ATCC BAA-2108, 16 h, read-out: MEC
[15] = test system: Klebsiella pneumoniae; assay: Potentiation of methicillin-induced antibacterial activity against Klebsiella pneumoniae ATCC 13883 assessed as minimum modulatory concentration up to 32 uM measured after 16 hrs in presence of MIC/4 methicillin; assay type: functional; conditions: ATCC 13883, 16 h, read-out: MEC
[16] = test system: Streptococcus pyogenes; assay: Potentiation of erythromycin-induced antibacterial activity against Streptococcus pyogenes ATCC 14289 assessed as minimum modulatory concentration up to 32 uM measured after 16 hrs in presence of MIC/4 erythromycin; assay type: functional; conditions: ATCC 14289, 16 h, read-out: MEC
[17] = test system: Escherichia coli; assay: Potentiation of erythromycin-induced antibacterial activity against Escherichia coli ATCC 43894 assessed as minimum modulatory concentration up to 32 uM measured after 16 hrs in presence of MIC/4 erythromycin; assay type: functional; conditions: ATCC 43894, 16 h, read-out: MEC
[18] = test system: Macrophage cell line; assay: Induction of IL-1beta production in human PBMC-differentiated macrophages after 24 hrs by ELISA; assay type: cell-based
[19] = test system: Staphylococcus aureus; assay: Potentiation of tetracycline-induced antibacterial activity against Staphylococcus aureus ATCC 33592 assessed as minimum modulatory concentration up to 32 uM measured after 16 hrs in presence of MIC/4 tetracycline; assay type: functional; conditions: ATCC 33592, 16 h, read-out: MEC
[20] = test system: Klebsiella pneumoniae; assay: Toxicity in Klebsiella pneumoniae ATCC 13883 up to 32 uM measured after 16 hrs; assay type: organism-based
[21] = test system: Klebsiella pneumoniae; assay: Potentiation of geneticin-induced antibacterial activity against Klebsiella pneumoniae ATCC 13883 assessed as minimum modulatory concentration up to 32 uM measured after 16 hrs in presence of MIC/4 geneticin; assay type: functional; conditions: ATCC 13883, 16 h, read-out: MEC
[22] = test system: Escherichia coli; assay: Potentiation of tetracycline-induced antibacterial activity against Escherichia coli ATCC 43894 assessed as minimum modulatory concentration up to 32 uM measured after 16 hrs in presence of MIC/4 tetracycline; assay type: functional; conditions: ATCC 43894, 16 h, read-out: MEC
[23] = test system: Macrophage cell line; assay: Antiinflammatory activity in human PBMC-differentiated macrophages assessed as inhibition of LPS-induced IL-8 production at 0.01 to 10 uM measured after 24 hrs by ELISA; assay type: functional, cell-based
[24] = test system: Pseudomonas aeruginosa; assay: Potentiation of tetracycline-induced antibacterial activity against Pseudomonas aeruginosa ATCC BAA-2108 assessed as minimum modulatory concentration up to 32 uM measured after 16 hrs in presence of MIC/4 tetracycline; assay type: functional; conditions: ATCC BAA-2108, 16 h, read-out: MEC
[25] = test system: Enterococcus faecium; assay: Potentiation of tetracycline-induced antibacterial activity against Enterococcus faecium ATCC 700221 assessed as minimum modulatory concentration up to 32 uM measured after 16 hrs in presence of MIC/4 tetracycline; assay type: functional; conditions: ATCC 700221, 16 h, read-out: MEC
[26] = test system: Staphylococcus aureus; assay: Potentiation of ciprofloxacin-induced antibacterial activity against Staphylococcus aureus ATCC 33592 assessed as minimum modulatory concentration up to 32 uM measured after 16 hrs in presence of MIC/4 ciprofloxacin; assay type: functional; conditions: ATCC 33592, 16 h, read-out: MEC
[27] = test system: Escherichia coli; assay: Toxicity in Escherichia coli ATCC 43894 up to 32 uM measured after 16 hrs; assay type: organism-based
[28] = test system: Enterococcus faecium; assay: Potentiation of methicillin-induced antibacterial activity against Enterococcus faecium ATCC 700221 assessed as minimum modulatory concentration up to 32 uM measured after 16 hrs in presence of MIC/4 methicillin; assay type: functional; conditions: ATCC 700221, 16 h, read-out: MEC
[29] = test system: Enterococcus faecium; assay: Toxicity in Enterococcus faecium ATCC 700221 up to 32 uM measured after 16 hrs; assay type: organism-based; conditions: in vitro
[30] = test system: Pseudomonas aeruginosa; assay: Potentiation of methicillin-induced antibacterial activity against Pseudomonas aeruginosa ATCC BAA-2108 assessed as minimum modulatory concentration up to 32 uM measured after 16 hrs in presence of MIC/4 methicillin; assay type: functional; conditions: ATCC BAA-2108, 16 h, read-out: MEC
[31] = test system: Staphylococcus aureus; assay: Potentiation of geneticin-induced antibacterial activity against Staphylococcus aureus ATCC 33592 assessed as minimum modulatory concentration up to 32 uM measured after 16 hrs in presence of MIC/4 geneticin; assay type: functional; conditions: ATCC 33592, 16 h, read-out: MEC
[32] = test system: Staphylococcus aureus; assay: Potentiation of erythromycin-induced antibacterial activity against Staphylococcus aureus ATCC 33592 assessed as minimum modulatory concentration up to 32 uM measured after 16 hrs in presence of MIC/4 erythromycin; assay type: functional; conditions: ATCC 33592, 16 h, read-out: MEC
[33] = test system: Streptococcus pyogenes; assay: Potentiation of ciprofloxacin-induced antibacterial activity against Streptococcus pyogenes ATCC 14289 assessed as minimum modulatory concentration up to 32 uM measured after 16 hrs in presence of MIC/4 ciprofloxacin; assay type: functional; conditions: ATCC 14289, 16 h, read-out: MEC

Compound	minimal effective concentration [1] [µM]	minimal effective concentration [2] [µM]	minimal effective concentration [3] [µM]	minimal effective concentration [4] [µM]	IC50 [5] [µM]	minimal effective concentration [6] [µM]	minimal effective concentration [7] [µM]	Activity [8]	inhibition [9]	minimal effective concentration [10] [µM]	minimal effective concentration [11] [µM]	minimal effective concentration [12] [µM]	minimal effective concentration [13] [µM]	minimal effective concentration [14] [µM]	minimal effective concentration [15] [µM]	minimal effective concentration [16] [µM]	minimal effective concentration [17] [µM]	Activity [18]	minimal effective concentration [19] [µM]	Activity [20]	further results
O=C(O)c1cnc(-c2ccccc2)c(O)c1	4	8	> 32	0.5	> 100	> 32	> 32	Non-Toxic	inactive	4	> 32	> 32	1	4	> 32	4	> 32	Non-Toxic	0.25	Non-Toxic	minimal effective concentration [21]: > 32 µM; minimal effective concentration [22]: > 32 µM; inhibition [23]: inactive; minimal effective concentration [24]: > 32 µM; minimal effective concentration [25]: 1 µM; minimal effective concentration [26]: > 32 µM; Activity [27]: Non-Toxic; minimal effective concentration [28]: 0.5 µM; Activity [29]: Non-Toxic; minimal effective concentration [30]: 16 µM; minimal effective concentration [31]: 2 µM; minimal effective concentration [32]: 2 µM; minimal effective concentration [33]: > 32 µM
Cc1nc(-c2ccccc2)cc(C(=O)O)c1O	> 32	> 32	> 32	16	90.8	> 32	> 32	Non-Toxic	inactive	> 32	> 32	> 32	> 32	> 32	> 32	> 32	> 32	Non-Toxic	16	Non-Toxic	minimal effective concentration [21]: > 32 µM; minimal effective concentration [22]: > 32 µM; inhibition [23]: inactive; minimal effective concentration [24]: > 32 µM; minimal effective concentration [25]: > 32 µM; minimal effective concentration [26]: > 32 µM; Activity [27]: Non-Toxic; minimal effective concentration [28]: > 32 µM; Activity [29]: Non-Toxic; minimal effective concentration [30]: > 32 µM; minimal effective concentration [31]: 16 µM; minimal effective concentration [32]: > 32 µM; minimal effective concentration [33]: > 32 µM
C[n+]1cc(O)c(C(=O)[O-])cc1-c1ccccc1	> 32	> 32	> 32	> 32	91.4	> 32	> 32	Non-Toxic	inactive	> 32	> 32	> 32	> 32	> 32	> 32	> 32	> 32	Non-Toxic	> 32	Non-Toxic	minimal effective concentration [21]: > 32 µM; minimal effective concentration [22]: > 32 µM; inhibition [23]: inactive; minimal effective concentration [24]: > 32 µM; minimal effective concentration [25]: > 32 µM; minimal effective concentration [26]: > 32 µM; Activity [27]: Non-Toxic; minimal effective concentration [28]: > 32 µM; Activity [29]: Non-Toxic; minimal effective concentration [30]: > 32 µM; minimal effective concentration [31]: > 32 µM; minimal effective concentration [32]: > 32 µM; minimal effective concentration [33]: > 32 µM
O=C(O)c1cc(-c2ccccc2)ncc1O	> 32	16	> 32	16	84.5	> 32	> 32	Non-Toxic	inactive	> 32	> 32	> 32	16	> 32	> 32	> 32	> 32	Non-Toxic	> 32	Non-Toxic	minimal effective concentration [21]: > 32 µM; minimal effective concentration [22]: > 32 µM; inhibition [23]: inactive; minimal effective concentration [24]: > 32 µM; minimal effective concentration [25]: > 32 µM; minimal effective concentration [26]: 16 µM; Activity [27]: Non-Toxic; minimal effective concentration [28]: > 32 µM; Activity [29]: Non-Toxic; minimal effective concentration [30]: > 32 µM; minimal effective concentration [31]: > 32 µM; minimal effective concentration [32]: > 32 µM; minimal effective concentration [33]: > 32 µM
COc1cccc(-c2cc(C(=O)[O-])c(O)c[n+]2C)c1	> 32	> 32	> 32	> 32	96	> 32	> 32	Non-Toxic	inactive	> 32	> 32	> 32	> 32	> 32	> 32	> 32	> 32	Non-Toxic	> 32	Non-Toxic	minimal effective concentration [21]: > 32 µM; minimal effective concentration [22]: > 32 µM; inhibition [23]: inactive; minimal effective concentration [24]: > 32 µM; minimal effective concentration [25]: > 32 µM; minimal effective concentration [26]: > 32 µM; Activity [27]: Non-Toxic; minimal effective concentration [28]: > 32 µM; Activity [29]: Non-Toxic; minimal effective concentration [30]: > 32 µM; minimal effective concentration [31]: > 32 µM; minimal effective concentration [32]: > 32 µM; minimal effective concentration [33]: > 32 µM
